We go through one substance from article PMC9756341 (Journal of the American Chemical Society, 2022).

Experiment [1] has as its system endogenous active KLK6. The settings on record: Capan-2 conditioned media, streptavidin pulldown, KLK6 western blot. A general note: A western blot detects proteins with antibodies after separation by electrophoresis.
Method: Conditioned media was incubated with bABP 17 (10 μM) or DMSO for 2 h, and labeled proteins enriched on magnetic streptavidin-loaded beads, eluted, and analyzed by western blot against a KLK6 antibody.
Cell culture. Cells were cultured in their recommended culture media supplemented with 10% (v/v)
foetal bovine serum at 37 °C and 5% CO2.
Preparation of conditioned media. Cells were grown in standard growth media to 80% confluency in
a T175 flask. The medium was removed, and the cells were washed with serum-free, phenol-red free
RPMI. The cells were incubated with the same RPMI for 2 h. The medium was replaced once again
with serum-free, phenol-red free RPMI and the cells were incubated for 48 h. The condition medium
was collected and filtered through a 0.2 µm syringe filter. The medium was concentrated (25 mL to
0.75 mL) using a 3 kDa Mw cutoff spin filter to a final concentration of around 1 mg/mL. The protein
concentration was measured using a BioRad DCTM protein assay.
Pulldown experiments (western blot). Conditioned media was diluted with PBS to exactly 1 mg/mL.
200 µg of total protein was used per condition. The ABP or DMSO was added at a 1:100 dilution and
the samples were shaken at RT for 1 h. The proteins were precipitated using the MeOH/H2O/CHCl3
method. The pellet was washed twice with MeOH and dried in air for 5 min. The protein was
resuspended in 2% SDS in PBS to a concentration of 10 mg/mL. PBS was added to gradually dilute
the protein back to 1 mg/mL and the samples were centrifuged (17,000 g, 5 min). 5 µg of protein was
set aside as the “before pulldown” samples. Magnetic streptavidin beads were washed three times with
PBS. The rest of the protein was added into the beads and shaken at RT for 2 h. 5 µg of the supernatant
was set aside for analysis, while the rest was discarded. The beads were washed three times with 1%
SDS in PBS. […]
were boiled at 95 °C for 5 min. The proteins were analysed via SDS-PAGE and western blot analysis. […]
10 min, followed by 180 V for 60 min. Gels were then taken for western blot or in-gel fluorescence. […]
Experiment [2] has as its target T1, KLK8 (Homo sapiens, UniProt O60259).
T1 construct: Active recombinant FGFBP1 (Code 1593-FB), HSPG2 (Code 2364-ER), uPA (Code 1310-SE), tPA (Code 7449-SE) and KLK8 (Code 2025-SE) were obtained from BioTechne; purchased BioTechne 2025-SE
T1 sequence (O60259 33-260): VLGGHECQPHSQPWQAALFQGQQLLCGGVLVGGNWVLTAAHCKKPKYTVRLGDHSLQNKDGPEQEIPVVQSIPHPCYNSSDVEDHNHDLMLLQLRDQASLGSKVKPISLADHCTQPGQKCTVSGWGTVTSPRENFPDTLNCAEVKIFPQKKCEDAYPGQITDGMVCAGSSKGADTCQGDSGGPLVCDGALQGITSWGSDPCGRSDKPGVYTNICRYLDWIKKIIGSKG
The experiment can be described thus: Enzyme kinetics to calculate kobs/I, KLK8. The experiment is classed as biochemical.

The target of experiment [3] is T2, KLK7 (Homo sapiens, UniProt P49862).
T2 construct: gift from the group of Judith Clements (QUT)
The experiment can be described thus: Enzyme kinetics to calculate kobs/I, KLK7. Format: biochemical. How it is done: (§1) Reagents were obtained from VWR, Sigma Aldrich, Sartorius, Fluorochem, AGTC, Novabiochem, TCI, Alfa Aesar, Iris Biotech, Thermofisher and Bachem. […]
(§2) (Code 7449-SE) and KLK8 (Code 2025-SE) were obtained from BioTechne. KLK6 was obtained from the group of Aubry Miller (DKFZ) and KLK7 was obtained from the group of Judith Clements (QUT).
(§3) The manufacturer’s recommended buffers were used with uPA and tPA but not KLK8. The KLK6 assay buffer was as follows: 50 mM Tris 150 mM NaCl, 1 mM EDTA, 0.05% Tween20, pH 7.5. The KLK7/8 buffer was as follows: 100 mM Na2PO4, 0.01% Tween20, pH 8.5. Fluorescence measurements were measured using an Envision plate reader. Fluorescence data was processed using Graphpad Prism 8. […]
(§4) 2-chlorotrityl chloride resin. […]

Experiment [4] deals with BxPC-3 cells. The settings on record: BxPC-3 cells (no active KLK6), 2 μM, 24 h, relative to DMSO. As to the method:
(§5) Next, the effect of KLK6 inhibition on migration and invasion of Capan-2 cells was assessed using a Boyden chamber assay.
(§6) (13 µL per condition). Control conditions included puromycin (100 µg/mL), DMSO only, Sytox green only or DMSO + Sytox green. The final inhibitor concentrations ranged from 2 µM to 125 nM. The cells were placed into an Incucyte with the incubator set at 37 °C and 5% CO2. Phase and green fluorescence were analysed every 4 h for 5 days.
(§7) Invasion/migration assays. Cell invasion was measured using Corning Fluoroblok inserts following a modified procedure11. Fluoroblok inserts were placed into the wells of a 24-well plate. Matrigel was suspended to 300 µg/mL in coating buffer (0.01M Tris, 0.7% NaCl, pH 8). The matrigel suspension (100 µL) was added into the Fluoroblok insert and the plate was left at 37 °C for 2 h. A migration control (with no matrigel) was also included. Cells were trypsinised and resuspended in serum-free DMEM.
(§8) The leftover buffer in the chambers was decanted and 500 µL of cells (100,000 per well) were seeded into the apical chamber of the insert. DMEM with 10% FBS (750 µL) was added into the basal chamber as a chemoattractant. The plate was incubated at 37 °C and 5% CO2 for 24 h. The chambers were removed and placed into a new 24-well plate containing 50 µM of CellTracker CMHC dye in HBSS. The cells were stained for 0.5 h and the chamber was removed and placed into the previous plate containing DMEM with 10% FBS. The cells were imaged for blue fluorescence (ex/em = 375/460) using a Celena S inverted fluorescence microscope. Percentage invasion was calculated by quantifying the cell area

Experiment [5] relates to Capan-2 cells. The settings on record: Capan-2 cells (active KLK6), 2 μM, 24 h, relative to DMSO. How it is done:
as §5, §6, §7, §8

Experiment [6] deals with T3, urokinase plasminogen activator (uPA) (Homo sapiens, UniProt P00749).
T3 construct: purchased BioTechne 1310-SE
Put plainly: Enzyme kinetics to calculate kobs/I, uPA. Format: biochemical. The settings on record: ratio of kobs/I. How it is done:
as §1, §2, §3, §4

The target of experiment [7] is T4, tissue plasminogen activator (tPA) (Homo sapiens, UniProt P00750).
T4 construct: purchased BioTechne 7449-SE
The experiment can be described thus: Enzyme kinetics to calculate kobs/I, tPA. The experiment is classed as biochemical. As to conditions: ratio of kobs/I. As to the method: as §1, §2, §3, §4

The test system of experiment [8] is Capan-2 cells. The settings on record: 0.13 to 2 μM, Incucyte live cell imaging every 4 h for 5 days, serum-free DMEM.
Method: Incucyte assays for proliferation and toxicity
Proliferation was quantified using the Incucyte software by measuring percentage confluency. Sytox
green was used as a marker for cell death. Cell death was quantified by measuring total green
fluorescence of each well.
Incucyte (proliferation and toxicity) assays. Capan-2 cells were seeded in a sterile 96 well plate
(10,000 cells per well). The outermost wells were left empty to mitigate edge effects. Cells were grown
in growth media (10% FBS) overnight to adhere. The next day, the media was replaced with serum-free
DMEM (117 µL) containing Sytox green (250 nM) or a DMSO control.
Experiment [9] relates to Capan-2 conditioned media proteome. The settings on record: 2 μM, 1 h, NeutrAvidin enrichment, LC–MS/MS, triplicate.
Method: Pulldown experiments (LC-MS/MS) Conditioned media was diluted with PBS to exactly 1 mg/mL.
300 µg of total protein was used per replicate. Each condition was performed in triplicate. The inhibitor
or DMSO control (1:100 dilution) was incubated with the media at RT for 2 h with a gentle agitation.
for 1 h. The proteins were precipitated using the MeOH/H2O/CHCl3 method. The pellet was washed
twice with MeOH and dried in air for 5 min. The proteins were resuspended in 2% SDS, 50 mM HEPES
in H2O (pH 8) to a concentration of 10 mg/mL. 50 mM HEPES was added to gradually dilute the protein
back to 1 mg/mL and the samples were centrifuged (17,000 g, 5 min). A 1:1 mixture of NeutrAvidin
agarose resin (15 µL per 300 µg protein) and control agarose resin (15 µL per 300 µg protein) was
prepared and washed with 0.2% SDS, 50 mM HEPES. The test samples were added into the resin and
the mixture was shaken at RT for 2 h. The supernatant was removed, and the beads were washed with
3 × 0.2% SDS, 50 mM HEPES and 3 × 50 mM HEPES. The beads were resuspended in 50 mM HEPES
(50 µL). TCEP was added to a final concentration of 5 mM (1:20 dilution). Chloroacetamide was added
to a final concentration of 10 mM (1:20 dilution). The mixture was shaken at RT for 30 min. To digest
the peptides off the resin, 0.5 µL of trypsin (0.2 mg/mL stock) was added into each sample and the
samples were shaken at 37 °C overnight. […]
Experiment [10] has as its system intracellular proteases of Capan-2 cells. As to conditions: live Capan-2 cells or cell lysate, 2 h, NeutrAvidin-HRP blot. How it is done: S12. Probe treatment in live Capan-2 cells and cell lysate
Figure S12. Capan-2 cells were grown to 80% confluency, followed by the addition of bABP 17 or FP-biotin for 2 h. Cells were lysed, boiled with Laemmli buffer and analysed using a NeutrAivdin-HRP western blot (in cell blot). Standard Capan-2 lysate was also treated with the same amounts of bABP 17 and FP-biotin, followed by the same analysis (in lysate blot).
(1 picture or pasted object on this page, not shown here)

Experiment [11] has as its system KLK6. Put plainly: Enzyme kinetics to calculate kobs/I, KLK6. Format: biochemical, human. The settings on record: KLK6 1.5 nM, fluorogenic substrate 22 5 µM, 50 mM Tris 150 mM NaCl 1 mM EDTA 0.05% Tween20 pH 7.5, room temperature, read every 30 s for 30 min, ex/em 380/440 nm, pseudo first order kinetics, corrected by (1 + [S]/KM), triplicates.
For experiment [12], the system named is recombinant tPA, uPA, or KLK6. The settings on record: 2 h incubation, then fABP 21 for 1 h, in-gel fluorescence.
[13] abbreviates: Fluoroblok insert without Matrigel.
The mark [14] stands for this setting: Matrigel-coated Fluoroblok insert.

“And” between values parts separate entries of the source, which are not always exact repeats. Equal values may be shown once.

T2 sequence (P49862 30-253): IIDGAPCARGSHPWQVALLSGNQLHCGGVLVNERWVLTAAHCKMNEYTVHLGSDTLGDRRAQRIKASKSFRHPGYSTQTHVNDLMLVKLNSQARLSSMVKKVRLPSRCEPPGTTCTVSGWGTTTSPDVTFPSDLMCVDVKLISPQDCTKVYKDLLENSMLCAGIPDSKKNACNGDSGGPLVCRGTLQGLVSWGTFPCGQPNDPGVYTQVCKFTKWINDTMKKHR
T4 sequence (P00750 36-562): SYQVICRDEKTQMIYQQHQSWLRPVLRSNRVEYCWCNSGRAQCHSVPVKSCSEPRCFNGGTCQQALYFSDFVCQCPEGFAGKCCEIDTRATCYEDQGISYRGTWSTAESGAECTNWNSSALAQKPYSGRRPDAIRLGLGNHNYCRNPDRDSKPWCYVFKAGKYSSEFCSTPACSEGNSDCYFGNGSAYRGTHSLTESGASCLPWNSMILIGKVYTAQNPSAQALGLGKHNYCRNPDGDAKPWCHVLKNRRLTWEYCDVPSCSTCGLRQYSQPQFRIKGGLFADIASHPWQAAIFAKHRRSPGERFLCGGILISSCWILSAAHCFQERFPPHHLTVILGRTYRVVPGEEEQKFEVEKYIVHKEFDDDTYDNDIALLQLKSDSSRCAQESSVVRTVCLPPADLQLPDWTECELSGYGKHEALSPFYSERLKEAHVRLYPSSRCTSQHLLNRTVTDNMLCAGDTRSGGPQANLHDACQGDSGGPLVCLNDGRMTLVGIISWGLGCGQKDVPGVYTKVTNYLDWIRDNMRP

“biotin–Ahx–DPhe–Ser(Z)–Dht–ArgPP [compound 17]”: the “labeling of endogenous KLK6” value in experiment [1] was “efficiently labels endogenous active KLK6”. In addition, the “lowest probe concentration detecting active KLK6” value in experiment [1] (dose-dependent) turned out to be 50 nM. Besides, in experiment [2] (KLK8 1 nM, Boc-VPR-AMC 30 µM, 100 mM Na2PO4 0.01% Tween20 pH 8.5, room temperature, 30 min, pseudo first order kinetics, triplicates), the “KLK8 kobs/I” value was 140 M^–1 s^–1 and 140 ± 5 M^–1 s^–1. The “selectivity for KLK6 over KLK8” value in [2] (ratio of kobs/I) is > 70 fold. In addition, the “KLK7 kobs/I” value in [3] (KLK7 34 nM, substrate 24 5 µM, 100 mM Na2PO4 0.01% Tween20 pH 8.5, room temperature, 30 min, pseudo first order kinetics, triplicates) is 350 M⁻¹ s⁻¹ and 350 ± 90 M⁻¹ s⁻¹. In experiment [3] (ratio of kobs/I), the “selectivity for KLK6 over KLK7” value was > 30 fold. Moreover, the effect on migration entry is “no effect” in experiment [4] (setting [13]) and “reduced” in experiment [5] (setting [13]). Also, the effect on invasion entry in [4] (setting [14]) is reported as “no effect”; in [5] (setting [14]) it was “reduced”. The “selectivity for KLK6 over uPA” value in experiment [6] is given as > 600 fold. In addition, the “selectivity for KLK6 over tPA” value in [7] is > 600 fold. Besides, in experiment [8], the “effect on proliferation (percentage confluency)” value was “no effect”. Also, the “proteases labeled/enriched over DMSO control” value in [9] is “KLK6, along with two off-targets, uPA and tPA”. Moreover, the “labeling of intracellular proteases” value in experiment [10] is given as “did not label any intracellular protease”. For the same substance, the “KLK6 kobs/I” value is 11000 M^–1 s^–1 and 11000 ± 300 M^–1 s^–1 in experiment [11]; 11,000 M^–1 s^–1 in experiment [11] (listed as IMP-2352). Further, the “inhibition of recombinant KLK6 versus tPA and uPA” value in [12] is given as “selectively inhibit KLK6 over the two off-targets”.
